Test [1] has as its system acute leukemia with MLLr or NPM1m. Put plainly: Phase 1/2 clinical study, clinical activity (responses by ELN 2017). The class given is in vivo, human. The procedure:
In the present test, signs of clinical activity have been observed, including decreases and normalization of bone marrow blasts, elimination of blasts in peripheral blood, and responses according to European LeukemiaNet 2017 Response Criteria. A patient with MLLr assigned to 120 mg BID in Arm A achieved MLFS (morphologic leukemia-free state), while a patient with MLLr assigned to 60 mg BID with azoles in Arm B achieved CRh (complete remission with partial hematological recovery) and CRi (complete remission with incomplete hematologic recovery). Substantial changes in several biomarkers have also been observed, including decreases in HOXA9, PBX3, and MEIS1, and increases in CD11b. These changes have been particularly notable in patients with MLLr or NPM1m.
(1) Of 43 patients enrolled, 17 patients had MLLr and 9 patients had NPM1m, with 19 evaluable at the time of data extraction and 5 responders per ELN 2017 (FIG. 7A). At 200 mg BID in Arm B, 4 evaluable patients had MLLr or NPM1m (n=1 and 3, respectively) and 1 patient achieved CRh/CRi, 1 patient achieved CRi, and 1 patient achieved MLFS. Two additional patients with MLLr also achieved response per ELN2017 at lower dose levels (CRh/CRi and MLFS).

The next test concerns OCI-AML3 cells. Put plainly: Tumor-bearing mice transplanted with OCI-AML3 cells, with cytarabine and daunorubicin, T/C (Example 14). The class given is in vivo. The following applies: oral, 21 days. The procedure: Cytarabine (Cylocide Injection 200 mg/10 mL, Nippon Shinyaku Co., Ltd.) was diluted with saline (Otsuka Saline Injection, Otsuka Pharmaceutical Factory Co., Ltd.) to 8 mg/mL. Daunorubicin (Daunomycin for injection 20 mg, Meiji, Seika Pharma Co., Ltd.) was dissolved in saline (Otsuka Saline Injection, Otsuka Pharmaceutical Factory Co., Ltd.) to 0.2 mg/mL.
OCI-AML3 cells (DSMZ) were intradermally implanted around the ventral region of 7-week old NOD. CB17-PrkdcSCID/J mice (female, The Jackson Laboratory Japan) at 1×10^6 cells/mouse. […] Cytarabine was intraperitoneally administered to the mice at a dose of 80 mg/kg once a day for 5 days. Daunorubicin was intravenously administered to the mice at a dose of 1 mg/kg once a day for 3 days. The tumor volume was measured over time from the start of the administration, and the reduction effect of the tumor volume due to the compound-administration was evaluated. The tumor volume was calculated by the following formula using short axis and long axis of the tumor measured with an electronic caliper (Mitutoyo).
(§1) The control administration group in which only the solvent was administered and the test substance administration group were compared, and T/C was calculated using the following formula to evaluate the antitumor effect.

A further test relates to MOLM-13 cells. The test is described as follows: Tumor-bearing mice transplanted with MOLM-13 cells, with gilteritinib, T/C (Example 12). Format: in vivo. The following applies: MOLM-13 tumor-bearing mice, oral, 18 days. The method, then:
The antitumor effects of the present compound and gilteritinib were evaluated. The present compound was weighed and dissolved in 0.5 w/v % Methyl Cellulose 400 solution to give the compound concentrations of 20 mg/mL and 10 mg/mL. Gilteritinib was weighed and suspended in 0.5 w/v % Methyl Cellulose 400 solution to give the compound concentrations of 3 mg/mL.
MOLM-13 cells (DSMZ) were intradermally implanted around the ventral region of 5-week old NOD. CB17-PrkdcSCID/J mice (female, The Jackson Laboratory Japan) at 1×10^6 cells/mouse. After confirming the engraftment of MOLM-13 cells 6 days after the transplantation, the present compound was orally administered to the mice at a dose of 100 mg/kg or 200 mg/kg, and gilteritinib was orally administered to the mice at a dose of 30 mg/kg, once a day for 18 days. The tumor volume was measured over time from the start of the administration, and the reduction effect of the tumor volume due to the compound-administration was evaluated. The tumor volume was calculated by the following formula using short axis and long axis of the tumor measured with an electronic caliper (Mitutoyo).
as §1

Setting [2] is: 200 mg BID Arm B, 4 evaluable patients with MLLr or NPM1m.

Usually T/C stands for the ratio of treated to control. Turning to `C=C1C[C@@H]2CC[C@H]1[C@@H](C(=O)N1CCC3(CC1)CN(c1ncncc1Oc1ccc(F)cc1C(=O)N(C(C)C)C(C)C)C3)N2` [the present compound, 5-fluoro-2-[(4-{7-[(1S,3S,4R)-5-methylidene-2-azabicyclo[2.2.2]octane-3-carbonyl]-2,7-diazaspiro[3.5]nonan-2-yl}pyrimidin-5-yl)oxy]-N,N-di(propan-2-yl)benzamide], the “patients who achieved CRh/CRi” value in test [1] (setting [2]) was found to be 1 patient. The “patients who achieved CRi” value in test [1] (setting [2]) was determined as 1 patient. Further, in test [1] (setting [2]), the “patients who achieved MLFS” value is listed as 1 patient. Further, the “response achieved (ELN 2017)” value in test [1] (a patient with MLLr, 60 mg BID with azoles Arm B) was “CRh and CRi”. The T/C amounted to 53.1% in the test with OCI-AML3 cells (100 mg/kg), 41.7% in the test with OCI-AML3 cells (200 mg/kg), 43.8% in the test with MOLM-13 cells (100 mg/kg) and 1.8% in the test on MOLM-13 cells (200 mg/kg).
